The numbers were not newly measured in US20070072885A1, “BICYCLIC DERIVATIVES FOR THE TREATMENT OF ABNORMAL CELL GROWTH” (Pfizer Inc, priority 2005, published 2007), which cites them from elsewhere.

In series [1] the test system is another carcinoma which does not express the EGF receptor.
In series [2] the test system is transplanted human mammary carcinoma which expresses epidermal growth factor receptor tyrosine kinase (EGFR). The settings on record: EGFR-expressing carcinoma in athymic nude mice.

With `O=CN/C=C/c1cc(O)ccc1O` [erbstatin], the “growth of another carcinoma” value in series [1] is reported as “without effect”. The “growth of transplanted human mammary carcinoma” value in series [2] is on record as “selectively attenuates the growth”.
